Data published in patent publication EP0877020A1, “ACRIDONE DERIVATIVE” (Eisai Co., Ltd., priority 1995, dated 1997).
Like-named read-outs stand apart in the source and are kept apart here. One block for each compound: values may come before it.

Assays:
RBL-2H3 cells = experiment: Repression of liberation of mediators (serotonin, histamine, arachidonic acid) from RBL-2H3 cells; type: cell-based, rat
From the text: [Study on activity to repress the liberation of various mediators from rat basophilic leukemic cell strain (RBL-2H3) and activity to repress thyrosine kinase]
The cells of RBL-2H3, one species of rat cell line, carry out not only the liberation of histamine and serotonin but also the formation and liberation of prostaglandins, TNFα, etc., i.e. inflammatory mediators, owing to the specific antigen of the IgE antibody bound to the IgE receptor. In the present test system, therefore, the cells were marked with serotonin and arachidonic acid labeled in advance with [^3H] and cultured in the presence of a compound under test and in the absence thereof and the amounts of the mediators liberated in the culture medium were measured. Thus, the given compounds were tested for activity to repress the liberation of various mediators. The TNFα was determined by means of bioassay.

Jurkat cells (T-cells) = experiment: Thyrosine kinase selectivity in Jurkat cells (antigenic stimulus); type: cell-based
phospholipase C = experiment: Repression of activation of phospholipase C, intracellular substrate of the thyrosine kinase; type: cell-based; conditions: at the same concentration (12 µM)
TNFα = experiment: Repression of formation and liberation of TNFα (bioassay); type: cell-based, rat; conditions: at the same concentration (12 µM)
[1] = Rattus norvegicus, RBL-2H3 cells, [3H]-labelled serotonin, read-out: IC50 (µM) in liberation of serotonin from RBL-2H3 cells

Compound: Cc1ccc2c(=O)c3ccccc3n(CCCN)c2c1C [Example 2, 3,4-Dimethyl-10-(3-aminopropyl)-9-acridone]
IC50 (RBL-2H3 cells; Rattus norvegicus, RBL-2H3, RBL-2H3 cells, [3H]-labelled serotonin, read-out: IC50 (µM) in liberation of serotonin from RBL-2H3 cells): 6 µM

Compound: 3,4-Dimethyl-10-[3-(2-imidazoylmethyl)aminopropyl]-9 acridone [Example 32]
IC50 (RBL-2H3 cells; RBL-2H3 cells, [3H]-labelled serotonin, read-out: IC50 (µM) in liberation of serotonin from RBL-2H3 cells): 0.6 µM

Compound: Cc1ccc2c(=O)c3ccccc3n(CCCN)c2c1C.O=C(O)C(=O)O [Example 3, 3,4-Dimethyl-10-(3-aminopropyl)-9-acridone oxalate]
activity to repress the antigenic stimulus in the Jurkat cells (Jurkat cells (T-cells); Jurkat cells): absolutely no activity | activity to repress such thyrosine kinases as p561ck and fyn (Jurkat cells (T-cells); concluded from the Jurkat cell test): no activity | IC50 (RBL-2H3 cells; Rattus norvegicus, RBL-2H3, due to the antigenic stimulus, read-out: IC50 value, liberation of arachidonic acid from the RBL-2H3 cells): 12 µM | IC50 (RBL-2H3 cells; Rattus norvegicus, RBL-2H3, due to the antigenic stimulus, read-out: IC50 value, liberation of histamine from the RBL-2H3 cells): 12 µM | IC50 (RBL-2H3 cells; Rattus norvegicus, RBL-2H3, due to the antigenic stimulus, read-out: IC50 value, liberation of serotonin from the RBL-2H3 cells): 12 µM | activation of phospholipase C (phospholipase C): repressed | formation and liberation of TNFα (TNFα): repressed

IC50 (RBL-2H3 cells; [1]): 3 µM
Compound: Cc1ccc2c(=O)c3ccccc3n(CCCNCc3ccccc3)c2c1C [Example 19, 3,4-Dimethyl-10-(3-benzylaminopropyl)-9-acridone]

IC50 (RBL-2H3 cells; [1]): 1.7 µM
Compound: Cc1c(F)cc2c(=O)c3ccccc3n(CCCN)c2c1C [Example 1, 2-Fluoro-3,4-dimethyl-10-(3-aminopropyl)-9-acridone]
